Laboratory results published in ChEMBL document CHEMBL5113453, “Design, synthesis, and biological evaluation of a new series of pyrazole derivatives: Discovery of potent and selective JNK3 kinase inhibitors” (Bioorg Med Chem, 2022).

Key:
Assay type in all cases: functional, cell-based
[1] = system: SW-620; assay: Antiproliferative activity against human SW-620 cells measured after 48 hrs by SRB assay
[2] = system: HOP-62; assay: Antiproliferative activity against human HOP-62 cells measured after 48 hrs by SRB assay
[3] = system: HL-60(TB); assay: Antiproliferative activity against human HL-60(TB) cells measured after 48 hrs by SRB assay
[4] = system: MCF7; assay: Antiproliferative activity against human MCF7 cells measured after 48 hrs by SRB assay
[5] = system: SF-268; assay: Antiproliferative activity against human SF-268 cells measured after 48 hrs by SRB assay
[6] = system: HCT-116; assay: Antiproliferative activity against human HCT-116 cells measured after 48 hrs by SRB assay
[7] = system: HT-29; assay: Antiproliferative activity against human HT-29 cells measured after 48 hrs by SRB assay
[8] = system: NCI-H322M; assay: Antiproliferative activity against human NCI-H322M cells measured after 48 hrs by SRB assay
[9] = system: A549; assay: Antiproliferative activity against human A549 cells measured after 48 hrs by SRB assay
[10] = system: SF-539; assay: Antiproliferative activity against human SF-539 cells measured after 48 hrs by SRB assay
[11] = system: SN12C; assay: Antiproliferative activity against human SN12C cells measured after 48 hrs by SRB assay
[12] = system: CCRF-CEM; assay: Antiproliferative activity against human CCRF-CEM cells measured after 48 hrs by SRB assay
[13] = system: M14; assay: Antiproliferative activity against human M14 cells measured after 48 hrs by SRB assay
[14] = system: NCI-H23; assay: Antiproliferative activity against human NCI-H23 cells measured after 48 hrs by SRB assay
[15] = system: DU-145; assay: Antiproliferative activity against human DU-145 cells measured after 48 hrs by SRB assay
[16] = system: MDA-MB-231; assay: Antiproliferative activity against human MDA-MB-231 cells measured after 48 hrs by SRB assay
[17] = system: IGROV-1; assay: Antiproliferative activity against human IGROV-1 cells measured after 48 hrs by SRB assay
[18] = system: CAKI-1; assay: Antiproliferative activity against human CAKI-1 cells measured after 48 hrs by SRB assay
[19] = system: SK-MEL-2; assay: Antiproliferative activity against human SK-MEL-2 cells measured after 48 hrs by SRB assay
[20] = system: K562; assay: Antiproliferative activity against human K562 cells measured after 48 hrs by SRB assay
[21] = system: BT-549; assay: Antiproliferative activity against human BT-549 cells measured after 48 hrs by SRB assay
[22] = system: RXF 393; assay: Antiproliferative activity against human RXF 393 cells measured after 48 hrs by SRB assay
[23] = system: NCI/ADR-RES; assay: Antiproliferative activity against human NCI-ADR-RES cells measured after 48 hrs by SRB assay
[24] = system: UACC-257; assay: Antiproliferative activity against human UACC-257 cells measured after 48 hrs by SRB assay
[25] = system: UACC-62; assay: Antiproliferative activity against human UACC-62 cells measured after 48 hrs by SRB assay
[26] = system: KM12; assay: Antiproliferative activity against human KM12 cells measured after 48 hrs by SRB assay
[27] = system: U-251; assay: Antiproliferative activity against human U-251 cells measured after 48 hrs by SRB assay
[28] = system: NCI-H522; assay: Antiproliferative activity against human NCI-H522 cells measured after 48 hrs by SRB assay
[29] = system: SK-MEL-28; assay: Antiproliferative activity against human SK-MEL-28 cells measured after 48 hrs by SRB assay
[30] = system: SNB-75; assay: Antiproliferative activity against human SNB-75 cells measured after 48 hrs by SRB assay
[31] = system: NCI-H460; assay: Antiproliferative activity against human NCI-H460 cells measured after 48 hrs by SRB assay
[32] = system: 786-0; assay: Antiproliferative activity against human 786-0 cells measured after 48 hrs by SRB assay
[33] = system: NCI-H226; assay: Antiproliferative activity against human NCI-H226 cells measured after 48 hrs by SRB assay
[34] = system: SR; assay: Antiproliferative activity against human SR cells measured after 48 hrs by SRB assay
[35] = system: T47D; assay: Antiproliferative activity against human T47D cells measured after 48 hrs by SRB assay
[36] = system: OVCAR-4; assay: Antiproliferative activity against human OVCAR-4 cells measured after 48 hrs by SRB assay

O=C1c2ccccc2-c2n[nH]c3cccc1c23
IC50 ([1]; SW-620, 48 h): 10.9 µM
TGI ([1]; SW-620, time 48 hrs): > 100 µM
IC50 ([2]; HOP-62, 48 h): 69.3 µM
TGI ([2]; HOP-62, time 48 hrs): > 100 µM
IC50 ([3]; HL-60, 48 h): 42.1 µM
TGI ([3]; HL-60, time 48 hrs): > 100 µM
IC50 ([4]; MCF7, 48 h): 49 µM
TGI ([4]; MCF7, time 48 hrs): > 100 µM
IC50 ([5]; SF-268, 48 h): 18.4 µM
TGI ([5]; SF-268, time 48 hrs): > 100 µM
IC50 ([6]; HCT-116, 48 h): 44.6 µM
TGI ([6]; HCT-116, time 48 hrs): > 100 µM
IC50 ([7]; HT-29, 48 h): 25.9 µM
TGI ([7]; HT-29, time 48 hrs): > 100 µM
IC50 ([8]; 48 h): 24.9 µM
TGI ([8]; time 48 hrs): > 100 µM
IC50 ([9]; A549, 48 h): 14.9 µM
TGI ([9]; A549, time 48 hrs): > 100 µM
IC50 ([10]; SF-539, 48 h): 32.2 µM
TGI ([10]; SF-539, time 48 hrs): > 100 µM
IC50 ([11]; 48 h): 14.8 µM
TGI ([11]; time 48 hrs): > 100 µM
IC50 ([12]; 48 h): 16 µM
TGI ([12]; time 48 hrs): > 100 µM
IC50 ([13]; M14, 48 h): > 100 µM
TGI ([13]; M14, time 48 hrs): > 100 µM
IC50 ([14]; NCI-H23, 48 h): 23.8 µM
TGI ([14]; NCI-H23, time 48 hrs): 58.1 µM
IC50 ([15]; DU-145, 48 h): 28.2 µM
TGI ([15]; DU-145, time 48 hrs): > 100 µM
IC50 ([16]; MDA-MB-231, 48 h): 65.3 µM
TGI ([16]; MDA-MB-231, time 48 hrs): > 100 µM
IC50 ([17]; IGROV-1, 48 h): 11.3 µM
TGI ([17]; IGROV-1, time 48 hrs): > 100 µM
IC50 ([18]; CAKI-1, 48 h): 3.56 µM
TGI ([18]; CAKI-1, time 48 hrs): 18.2 µM
IC50 ([19]; SK-MEL-2, 48 h): 29 µM
TGI ([19]; SK-MEL-2, time 48 hrs): > 100 µM
IC50 ([20]; K562, 48 h): 48.6 µM
TGI ([20]; K562, time 48 hrs): > 100 µM
IC50 ([21]; BT-549, 48 h): 30.8 µM
TGI ([21]; BT-549, time 48 hrs): > 100 µM
IC50 ([22]; RXF 393, 48 h): 20.8 µM
TGI ([22]; RXF 393, time 48 hrs): > 100 µM
IC50 ([23]; 48 h): 22.6 µM
TGI ([23]; time 48 hrs): 59.2 µM
IC50 ([24]; UACC-257, 48 h): 29.5 µM
TGI ([24]; UACC-257, time 48 hrs): > 100 µM
IC50 ([25]; UACC-62, 48 h): 14.6 µM
TGI ([25]; UACC-62, time 48 hrs): 86.5 µM
IC50 ([26]; KM12, 48 h): 2.62 µM
TGI ([26]; KM12, time 48 hrs): 72.1 µM
IC50 ([27]; U-251, 48 h): 23.1 µM
TGI ([27]; U-251, time 48 hrs): > 100 µM
IC50 ([28]; NCI-H522, 48 h): 12.2 µM
TGI ([28]; NCI-H522, time 48 hrs): 50.4 µM
IC50 ([29]; SK-MEL-28, 48 h): 37.5 µM
TGI ([29]; SK-MEL-28, time 48 hrs): > 100 µM
IC50 ([30]; SNB-75, 48 h): 16.9 µM
TGI ([30]; SNB-75, time 48 hrs): 97.5 µM
IC50 ([31]; NCI-H460, 48 h): 9.86 µM
TGI ([31]; NCI-H460, time 48 hrs): > 100 µM
IC50 ([32]; 786-0, 48 h): 27.1 µM
TGI ([32]; 786-0, time 48 hrs): > 100 µM
IC50 ([33]; NCI-H226, 48 h): 22.9 µM
TGI ([33]; NCI-H226, time 48 hrs): > 100 µM
IC50 ([34]; 48 h): 13.1 µM
TGI ([34]; time 48 hrs): > 100 µM
IC50 ([35]; 48 h): > 100 µM
TGI ([35]; time 48 hrs): > 100 µM
IC50 ([36]; OVCAR-4, 48 h): 31.9 µM
TGI ([36]; OVCAR-4, time 48 hrs): > 100 µM
